These results are taken from ChEMBL document CHEMBL2150850, “Recent advances in the development of selective human MAO-B inhibitors: (hetero)arylidene-(4-substituted-thiazol-2-yl)hydrazines” (Eur J Med Chem, 2012).

pIC50: −log10 of the molar value. Some results are limits rather than exact numbers.

Data set [1] concerns the target T1, Amine oxidase [flavin-containing] A (Homo sapiens, UniProt P21397).
T1 sequence (P21397 whole entry): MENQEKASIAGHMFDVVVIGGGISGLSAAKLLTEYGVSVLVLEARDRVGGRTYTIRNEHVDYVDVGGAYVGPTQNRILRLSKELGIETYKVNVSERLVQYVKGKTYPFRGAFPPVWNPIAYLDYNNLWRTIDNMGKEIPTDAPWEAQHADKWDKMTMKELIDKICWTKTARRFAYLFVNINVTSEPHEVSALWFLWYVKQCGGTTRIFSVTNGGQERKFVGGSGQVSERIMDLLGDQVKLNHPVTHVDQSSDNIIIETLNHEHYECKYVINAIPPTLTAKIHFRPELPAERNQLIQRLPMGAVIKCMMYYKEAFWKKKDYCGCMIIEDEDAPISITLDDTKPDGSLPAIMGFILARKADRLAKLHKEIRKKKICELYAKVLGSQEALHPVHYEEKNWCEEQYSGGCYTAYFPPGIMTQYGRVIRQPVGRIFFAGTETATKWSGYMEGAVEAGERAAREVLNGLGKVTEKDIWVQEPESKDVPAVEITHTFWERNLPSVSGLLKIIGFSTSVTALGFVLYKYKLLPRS
The data set can be described thus: Inhibition of human MAO-A expressed in baculovirus infected BTI-TN-5B1-4 cells using p-tyramine as substrate at 100 uM incubated for 15 mins prior to substrate addition measured for 15 mins by Amplex red assay. The conditions noted are these: for inhibition (INH): human, bti-tn-5b1-4, 0.25 h, 100 µM; for inhibition at 100 µM: BTI-TN-5B1-4, human, 0.25 h.

Data set [2] concerns the target T2, Amine oxidase [flavin-containing] B (Homo sapiens, UniProt P27338).
T2 sequence (P27338 whole entry): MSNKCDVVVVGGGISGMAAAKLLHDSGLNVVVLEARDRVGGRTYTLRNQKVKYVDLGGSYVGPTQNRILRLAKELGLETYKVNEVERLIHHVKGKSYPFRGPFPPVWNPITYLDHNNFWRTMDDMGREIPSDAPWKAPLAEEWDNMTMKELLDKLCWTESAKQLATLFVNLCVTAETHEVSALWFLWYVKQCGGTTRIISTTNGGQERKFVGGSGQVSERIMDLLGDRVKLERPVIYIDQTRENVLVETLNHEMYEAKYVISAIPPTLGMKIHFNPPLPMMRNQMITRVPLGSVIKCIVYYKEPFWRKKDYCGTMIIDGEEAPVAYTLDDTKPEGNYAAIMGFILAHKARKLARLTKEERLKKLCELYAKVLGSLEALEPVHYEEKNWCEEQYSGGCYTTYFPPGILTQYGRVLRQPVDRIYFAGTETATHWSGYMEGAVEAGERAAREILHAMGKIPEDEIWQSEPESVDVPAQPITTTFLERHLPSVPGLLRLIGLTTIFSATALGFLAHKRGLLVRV
The data set can be described thus: biochemical. It counts as cell-based, BTI-TN-5B1-4.
Description: Inhibition of human MAO-B expressed in baculovirus infected BTI-TN-5B1-4 cells using p-tyramine as substrate incubated for 15 mins prior to substrate addition measured for 15 mins by Amplex red assay

The species entered for a further data set is Homo sapiens. Kind of data set: Selectivity ratio of IC50 for human MAO-A to IC50 for human MAO-B.

In the case of `C/C(=N/Nc1nc(-c2ccc(F)cc2F)cs1)c1cc2ccccc2oc1=O`, the “inhibition (INH)” value in data set [1] was “Not Active”. For the same compound, in data set [2], the negative logarithm of the IC50 (pIC50) is 5.85. For the same compound, the Ratio IC50 in the data set listed under Homo sapiens was more than 70.
With `Fc1ccc(-c2csc(N/N=C\c3ccco3)n2)cc1`, the inhibition at 100 µM in data set [1] came out at 40%. The compound further gave a negative logarithm of the IC50 (pIC50) in data set [2] of 6.19. Further, the Ratio IC50 in the data set listed under Homo sapiens was more than 153.
Consider `N#Cc1ccc(-c2csc(N/N=C\c3cccc4ccccc34)n2)cc1`, for which 100 µM produced 40% inhibition in data set [1]. In data set [2], this compound gave a negative-log IC50 (pIC50) of 5.96. For the same compound, the Ratio IC50 in the data set filed under Homo sapiens is more than 91.
For `C/C(=N/Nc1nc(-c2ccc(C#N)cc2)cs1)c1cccnc1`, in that order: 40%, 8.68 and more than 47800.
In data set [1], `Fc1ccc(-c2csc(N/N=C\c3cccnc3)n2)cc1` displayed an inhibition at 100 µM of 40%. The compound further showed a negative-log IC50 (pIC50) in data set [2] of 6.32. The Ratio IC50 in the data set listed under Homo sapiens is more than 207.
For `C/C(=N/Nc1nc(-c2ccc(F)cc2F)cs1)c1cccnc1`, the inhibition at 100 µM in data set [1] was 40%. In data set [2], this compound gave a pIC50 of 7.74. Moreover, the Ratio IC50 in the data set filed under Homo sapiens was more than 5430.
Consider `N#Cc1ccc(-c2csc(N/N=C\c3ccco3)n2)cc1`, for which the inhibition at 100 µM in data set [1] came to 40%. The compound further gave a pIC50 in data set [2] of 5.83. Also, the Ratio IC50 in the data set listed under Homo sapiens is more than 67.
For `Fc1ccc(-c2csc(N/N=C\c3ccc4c(c3)OCO4)n2)c(F)c1`, in that order: 40%, 5.93 and more than 85.
The matching figures for `Fc1ccc(-c2csc(N/N=C\c3cccc4ccccc34)n2)cc1`: 40%, 4.89 and more than 7.8.
For `C/C(=N/Nc1nc(-c2ccc(F)cc2F)cs1)c1ccco1`, in that order: 40%, 7.40 and more than 2490.
As to `N#Cc1ccc(-c2csc(N/N=C\c3c[nH]c4ccccc34)n2)cc1`, the “inhibition (INH)” value in data set [1] was “Not Active”. Besides, in data set [2], the pIC50 was 6.12. The Ratio IC50 in the data set listed under Homo sapiens is more than 131.
Compound `Fc1ccc(-c2csc(N/N=C\c3cccs3)n2)c(F)c1` came in with an inhibition at 100 µM in data set [1] of 40%. The negative-log IC50 (pIC50) in data set [2] is 7.78. In addition, in the data set filed under Homo sapiens, the Ratio IC50 was more than 6030.
On to `Fc1ccc(-c2csc(N/N=C\c3cccc4ccccc34)n2)c(F)c1`, for which 100 µM produced 40% inhibition in data set [1]. The pIC50 in data set [2] was 6.86. Besides, the Ratio IC50 in the data set filed under Homo sapiens was more than 727.
With `C/C(=N/Nc1nc(-c2ccc(F)cc2)cs1)c1ccncc1`, in data set [1], the inhibition at 100 µM worked out at 40%. The same compound showed a negative logarithm of the IC50 (pIC50) in data set [2] of 8.60. Moreover, in the data set filed under Homo sapiens, the Ratio IC50 is more than 39400.
For `C/C(=N/Nc1nc(-c2ccc(F)cc2)cs1)c1cccs1`, in data set [1], testing at 100 µM gave an inhibition of 40%. In data set [2], this compound gave a pIC50 of 7.81. In addition, the Ratio IC50 in the data set listed under Homo sapiens was more than 6460.
As for `C/C(=N/Nc1nc(-c2ccc([N+](=O)[O-])cc2)cs1)c1cccs1`, in data set [1], the “inhibition (INH)” value is reported as “Not Active”. For the same compound, in data set [2], the negative-log IC50 (pIC50) was 6.53.
On to `C/C(=N/Nc1nc(-c2ccc([N+](=O)[O-])cc2)cs1)c1ccco1`, for which 100 µM produced 40% inhibition in data set [1]. Further, the negative logarithm of the IC50 (pIC50) in data set [2] was 5.44.
`N#Cc1ccc(-c2csc(N/N=C\c3cccnc3)n2)cc1`: the inhibition at 100 µM in data set [1] is 40%. Further, the negative-log IC50 (pIC50) in data set [2] is 6.02. Moreover, the Ratio IC50 in the data set filed under Homo sapiens was more than 106.
The matching figures for `N#Cc1ccc(-c2csc(N/N=C\c3ccc4c(c3)OCO4)n2)cc1`: 40%, 6.52 and more than 332.
Compound `Fc1ccc(-c2csc(N/N=C\c3ccncc3)n2)cc1` returned an inhibition at 100 µM in data set [1] of 40%. For the same compound, the pIC50 in data set [2] is 6.95. The Ratio IC50 in the data set listed under Homo sapiens was more than 890.
The matching figures for `Fc1ccc(-c2csc(N/N=C\c3c[nH]c4ccccc34)n2)cc1`: 40%, 6.24 and more than 173.
For the compound `C/C(=N/Nc1nc(-c2ccc([N+](=O)[O-])cc2)cs1)c1ccncc1`, in data set [1], the “inhibition (INH)” value is “Not Active”. In addition, the pIC50 in data set [2] was 7.88. For the same compound, the Ratio IC50 in the data set filed under Homo sapiens was more than 7620.

The pIC50 is the negative decadic logarithm of the IC50, by convention in mol/L. A higher pIC50 goes with a low IC50. One may read the inhibition as the drop in the measured response relative to a control, in per cent. Higher therefore signals a strong effect.
